Results: patent publication US6365628B1 (Thia Medica AS, priority 1998, dated 2002)

Tests used:
Escherichia coli = test: Test for mutagenic activity in Escherichia coli strains; format: cell-based; details: 3-1000 mg/plate (TTA) 2-5000 mg/plate (TSA)
Description: Tests for mutagenic activity have been performed by Covance Laboratories Limited, England. […] Furthermore, TTA was not mutagenic when tested in mouse lymphoma cells […] L5178Y.

[1] = system: 5 weeks old Zucker (fa/fa) rats; test: Blood insulin and glucose in 5 weeks old Zucker (fa/fa) rats (Example 13); format: in vivo, rat; details: 300 mg/kg/day oral gavage, 11 days (FIG. 5)
Description: (§1) Glucose (GLU, Boehringer Mannheim, Germany), free fatty acids (NEFA, C ACS-ACOD kit; Wako Chemicals, Dalton, USA) and b-hydroxybutyrate (310-A kit; Sigma Diagnostics Inc., St. Louis, USA) concentrations were measured using enzymatic methods. Insulin concentrations were determined with radioimmunoassay by (CIS bio International, Gif sur Yvette, France) using rat insulin as standard in the Zucker rats. In the Wistar Charles River rats, plasma glucose concentrations were measured with the aid of Beckman Glucose Analyzer (Fullerton, Calif., USA). Plasma insulin levels were measured using a RIA kit from Linco Research Inc. (St. Charles, Mo., USA). Phospholipids were measured by the enzymatic method of bioMérieux, Marcy-l {grave over ( )}Etoile, France, Triacylglycerol by the Technicon Method no. SA4-0324L90, USA and Cholesterol by the Technicon Method no. SA4-0305L90, USA.
The rats were administered TTA at a dose of 300 mg/kg/day suspended in 0.5% CMC (n=6) by oral gavage. Following 11 days of treatment, rats were killed by cervical dislocation. Blood was collected and the levels of insulin and glucose measured as indicated in the method section. Data are means±S.D.

male Wistar rats [2] = test: Hepatic levels of triacylglycerol in rats fed fatty acid analogues (Example 17); format: in vivo, rat; details: TTA 150 mg/kg/day for 6 days, no prefeeding
Description: Even an increased hepatic level of triacylglycerol may be relieved by TTA. Feeding rats with an inhibitor of fatty acid oxidation will increase the level of hepatic triacylglycerol resulting in fatty liver. Tetradecyl-4-thia propionic acid (TTP) is a fatty acid analogue with a sulphur atom in the 4 position. This analogue inhibits the β-oxidation of fatty acids due to the formation of a mitochondrial inhibitor. Feeding rats with this analogue results in the formation of fatty. However, if the rats are fed with a combination of TTA and TTP, the formation of fatty liver is avoided (Table 8). This provides evidence that TTA may be used for the treatment of conditions with an increased hepatic level of triacylglycerol. Male Wistar rats had free access to water and rat maintenance chow. They were fed palmitic acid or fatty acid analogues suspended in 0.5% CMC for 6 days. In some experiments TTA or TTP were fed for 3 days before feeding both for 6 days. At the end of the experiment the rats were fasted overnight, killed, the liver removed and homogenized. Triacylglycerol was measured in the homogenate.

male Wistar rats [3] = test: Body weight of male Wistar rats after 12 weeks of treatment (Example 6); format: in vivo, rat; details: oral TTA
Description: 2 groups of 6 male Wistar Rats were randomly selected, and studied for weight development over a period of 12 week. The body weight of each Wistar rat was measured at the start of the experiment. All animals in both groups received individually the same amount of food (nutrition) during the experimental period of 12 weeks. All animals in one of the groups were orally administrated with the medicament comprising TTA. The other group was the control group (CMC). After the 12 week period the body weight of rats were measured again.

[4] = system: Wistar Charles River rats; test: Euglycemic hyperinsulinemic clamp, high fat diet induced insulin resistance (Example 12); format: in vivo, rat; details: HF diet supplemented with TTA, 21 days, 90 min clamp (FIG. 4)
Description: After 21 days on their respective diets (see above), the rats were anaesthetised by injection of xylazine hydrochloride (Rometar SPOFA, Prague, Czech Republic; 10 mg/ml) and ketamine hydrochloride (Narkamon SPOFA, Prague, Czech republic; 75 mg/ml), and fitted with chronic carotid artery and jugular vein cannulas as described by Koopmans et al. (Koopmans, S. J., et al., Biochim Biophys Acta, 1115, […] 1992.). The cannulated rats were allowed to recover for two days after surgery before the clamping studies which were carried out according to Kraegen et al. (Kraegen, E. W., et al., Am J Physiol, 248, E353-E362 1983.). Thus, on the third day after surgery, unrestrained conscious rats were given a continuous infusion of porcine insulin (Actrapid, Novo Nordisk, Denmark) at a dose of 6.4 mU per kg per min to achieve plasma insulin levels in the upper physiological range. The arterial blood glucose concentration was clamped at the basal fasting level, by variable infusion of a 30% w/v glucose solution (Leciva, Prague, Czech Republic). […]
Rats weighing 330±20 g were divided into 3 groups (n=9) and fed with three different diets: standard rat chow, high fat diet (HF) and HF supplemented with TTA. […] The glucose infusion rate (GIR) was determined from the period of the clamp where glycemia got stabilised, i.e. between 45-90 minutes after clamp commencement. […]

obese Zucker fa/fa rats = test: Lipid lowering effect in obese Zucker fa/fa rats (Example 3); format: in vivo, rat; details: 300 mg/day/kg by gavage once daily for 10 days, control palmitic acid
Description: as §1
Male obese Zucker fa/fa rats, weighing 100 g at the start of the experiment, were housed in pairs in metal wire cages in a room maintained at 12 h light-dark cycles and a constant temperature of 20±3° C. The animals were acclimatised for at least one week under these conditions before the start of the experiment.
TTA (tetradecylthioacetic acid) prepared in accordance with procedure described previously, and palmitic acid (control), was suspended in 0.5% (w/v) carboxymethyl cellulose (CMC). Six animals were used in both groups. TTA (tetradecylthioacetic acid) and palmitic acid were administered at a dose of 300 mg/day/kg body weight, by gastric intubation (gavage) once daily for 10 days. The rats were fasted for 2 hours before termination of the experiment. Blood and organs were collected. Lipid concentrations in plasma were determined using an autoanalyzer, as described in the method section.

## Tetradecylthioacetic acid [TTA]
Escherichia coli
  Induction of mutations in strains of Escherichia coli: did not induce mutations
[1]
  Reduction of blood concentration of glucose: ~15%
  Reduction of blood insulin concentration: ~40%
Male Wistar rats [2]
  Hepatic triacylglycerol TG (μmol/g): 7,7 ± 2,9 μmol/g
Male Wistar rats [3]
  Body weight gain/grams: 234 ± 20 grams
[4]
  Glucose infusion rate (GIR) in euglycemic hyperinsulinemic clamp: fully normal
Obese Zucker fa/fa rats
  Decreased lipid level in plasma (% of control) Cholesterol: 73 % of control
  Decreased lipid level in plasma (% of control) Phospholipids: 71 % of control
  Decreased lipid level in plasma (% of control) Triglycerides: 72 % of control
